For assay [1], the system named is C. albicans ATCC 64124 (strain B). Format: cell-based, Candida albicans. The method, then:
The efficiency of the compounds to kill C. albicans ATCC 64124 (strain B) was monitored using a previously published protocol. The cell suspensions were prepared to achieve an inoculum of approximately 1-4×10^5 CFU/mL in RPMI 1640 medium at 35° C. […] After fungal cell addition, at 0, 3, 6, 9, 12, and 24 h, the tubes were vortexed and 100 μL aliquots were removed from each solution, spread onto PDA plates, and incubated at 35° C. Colony counts were determined after 24 h of incubation. The experiments were performed in duplicate (FIG. 2).
Time-kill assays with ebsulfur (2a) and analogue 3a (FIG. 2) were performed to determine the rate of fungicidal activity of the compounds if the invention.

The subject of assay [2] is Aspergillus flavus ATCC MYA-3631 (strain K). Nature of the assay: Antifungal MIC determination, filamentous fungi spores. The following applies: all compounds. Format: cell-based. The method in brief:
(§1)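 A modified CLSI M27-A3 protocol is used, with final compound levels from 12.5 to 0.02 μg/mL in two-fold steps. Cells are incubated at 5×10^3 CFU/mL in buffered RPMI 1640 at 35° C for 48 h.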

The subject of assay [3] is Aspergillus terreus ATCC MYA-3633 (strain M). The description is as above. The following applies: strain M; all compounds; spores. Format: cell-based. The method in brief:
as §1

The test system of assay [4] is C. albicans ATCC 64124 (strain B). Nature of the assay: microbe, parasite or virus in culture. Type of assay: cell-based, Candida albicans. The following applies: strain B; compounds 1-4n and AmB; 48 h, RPMI 1640. The method in brief: (§2)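 Broth microdilution per CLSI M27-A3 (modified) in RPMI 1640 buffered to pH 7.0 with 0.165 M MOPS; yeast inocula grown in PDB, Aspergillus spores from PDA cultures at 25° C. Final drug 12.5-0.02 μg/mL, inoculum 5×10^3 CFU/mL; incubation 48 h at 35° C.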

Assay [5] relates to C. albicans ATCC MYA-1003(R) (strain G). As to the kind of experiment: microbe, parasite or virus in culture. Type of assay: cell-based, Candida albicans. The following applies: strain G; compounds 1-4n and AmB; 48 h, RPMI 1640. The method in brief:
as §2

Assay [6] deals with C. albicans ATCC 90819(R) (strain D). As to the kind of experiment: microbe, parasite or virus in culture. Type of assay: cell-based, Candida albicans. The following applies: strain D; compounds 1-4n and AmB; 48 h, RPMI 1640. The method in brief: as §2
The test system of assay [7] is C. albicans ATCC MYA-1237(R) (strain F). As to the kind of experiment: microbe, parasite or virus in culture. Type of assay: cell-based, Candida albicans. Particulars: strain F; compounds 1-4n and AmB; 48 h, RPMI 1640. The method in brief: as §2
Assay [8] deals with Candida and Aspergillus strains. Nature of the assay: Antifungal MIC, summary over whole panel of fungal strains. Particulars: for antifungal activity after oxidizing the sulfur atom to sulfoxide: oxidized analogues. Format: cell-based. On the procedure: Fungal MIC determination experiments were performed using untreated 96-well plates (Corning). Cells were counted either by using a hemocytometer (Hausser Scientific, Horsham, Pa., USA) or by measuring optical density at attenuance of 600 nm (OD600) by using a Genesys 20 spectrophotometer (Thermo Scientific, Waltham, Mass., USA). Spectrophotometric and colorimetric measurements in 96-well plates were performed using a SpectraMax M5 spectrometer (Molecular Devices, Sunnyvale, Calif., USA).
Yeast strains Candida albicans ATCC 10231 (strain A), C. albicans ATCC 64124 (strain B), and C. albicans ATCC MYA-2876(S) (strain C) were kindly provided by Dr. Jon Y. Takemoto (Utah State University, Logan, UT, USA). C. albicans ATCC MYA-90819(R) (strain D), C. albicans ATCC MYA-2310(S) (strain E), C. albicans ATCC 1237(R) (strain F), C. albicans ATCC MYA-1003(R) (strain G), Candida glabrata ATCC 2001 (strain H), Candida krusei ATCC 6258 (strain I), and Candida parapsilosis ATCC 22019 (strain J) were obtained from the American Type Culture Collection (ATCC, Manassas, Va., USA). The (S) and (R) indicate that ATCC reports these strains to be susceptible (S) and resistant (R) to ITC and FLC. The filamentous fungal strains Aspergillus flavus ATCC MYA-3631 (strain K), and Aspergillus terreus ATCC MYA-3633 (strain M) were also obtained from the American Type Culture Collection (ATCC, Manassas, Va., USA). Aspergillus nidulans ATCC 38163 (strain L) was kindly provided by Dr. Jon S. Thorson (University of Kentucky, Lexington, Ky., USA), respectively. Yeast strains were cultured at 35° C. Filamentous fungal strains were cultured at 25° C. and the spores were harvested. All fungal strains were cultured in RPMI 1640 medium (catalog # R6504, Sigma-Aldrich Chemical Co., St. Louis, Mo.) buffered to pH 7.0 with 0.165 M morpholinepropanesulfonic acid (MOPS) buffer (Sigma-Aldrich Chemical Co.).
The MIC values against fungal strains were determined based on a previously published protocol. MIC values for ebsulfur (2a) analogues against fungal cells were evaluated in 96-well plates as described in the CLSI document M27-A3 with minor modifications. […] Therefore, potato dextrose broth (PDB) was used to grow the yeast inocula of all strains tested, which were later diluted in RPMI 1640 medium to perform determination of MIC values. […] The tested compounds (10 mg/mL) were diluted to the working stocks (500 μg/mL) by addition of DMSO. Two-fold serial dilution of the working stocks was prepared by addition of RPMI 1640 medium (100 μL) and cell suspension (100 μL) to 96-well microtiter plate to achieve final drug and inoculum concentrations ranging from 12.5-0.02 μg/mL and 5×10^3 CFU/mL, respectively. Plates were incubated for 48 h at 35° C. […]

In assay [9] the test system is Candida krusei ATCC 6258 (strain I). As to the kind of experiment: Antifungal MIC determination (CLSI M27-A3, 96-well). Format: cell-based. Particulars: strain I; compounds 1-4n and AmB; 48 h, RPMI 1640. The method in brief: as §2
The test system of assay [10] is Candida albicans ATCC 10231 (strain A). The assay is described as above. Type of assay: cell-based. The following applies: strain A; compounds 1-4n and AmB; 48 h, RPMI 1640. The method in brief: as §2
The subject of assay [11] is Candida glabrata ATCC 2001 (strain H). The description is as above. Type of assay: cell-based. Particulars: strain H; compounds 1-4n and AmB; 48 h, RPMI 1640. The method in brief:
as §2

Assay [12] deals with Candida parapsilosis ATCC 22019 (strain J). The description is as above. Type of assay: cell-based. Particulars: strain J; compounds 1-4n and AmB; 48 h, RPMI 1640. An outline of the steps:
as §2

Assay [13] has as its system C. albicans ATCC MYA-2876(S) (strain C). Described as above. Type of assay: cell-based, Candida albicans. The following applies: strain C; compounds 1-4n and AmB; 48 h, RPMI 1640. An outline of the steps: as §2
Assay [14] concerns C. albicans ATCC MYA-2310(S) (strain E). The description is as above. Format: cell-based, Candida albicans. The following applies: strain E; compounds 1-4n and AmB; 48 h, RPMI 1640. An outline of the steps: as §2
Assay [15] deals with Aspergillus nidulans ATCC 38163 (strain L). Nature of the assay: Antifungal MIC determination, filamentous fungi spores. Format: cell-based. Particulars: strain L; spores. The method in brief:
as §1

Assay [16] has as its system C. albicans ATCC 10231 (strain A). Nature of the assay: ROS production assay (DCFH-DA). Particulars: 1× and 2× MIC (H2O2 1 mM), 1-h treatment. Format: cell-based, Candida albicans. The method, then:
ROS production assay was performed as previously described with minor modifications. […] Once entering the cells, the DCFH-DA probe is first hydrolyzed to the non-fluorescent 2′,7′-dichlorodihydrofluorescein (DCFH) by cellular esterases. […] A colony of C. albicans ATCC 10231 (strain A) was used to inoculate 5 mL of PDB in a Falcon tube and grown overnight at 35° C. at 200 rpm.
Thus, whether the compounds of the invention would also induce ROS against C. albicans was studied. […] 2′,7′-dichlorodihydrofluorescin diacetate (DCFH-DA) was then used to detect and visualize ROS production (FIG. 5). As a positive control, cells were treated with H2O2, which is an inducer of hydroxyl radical formation.

In brackets after ≈: the same amount, converted by molar mass. Like-named read-outs stand apart in the source and are kept apart here. Where only a bound is given, the exact number is not on record here.

Consider `C[C@@H]1[C@H](O)[C@@H](C)/C=C/C=C/C=C/C=C/C=C/C=C/C=C/[C@H](O[C@@H]2O[C@H](C)[C@@H](O)[C@H](N)[C@@H]2O)C[C@@H]2O[C@](O)(C[C@@H](O)C[C@@H](O)[C@H](O)CC[C@@H](O)C[C@@H](O)CC(=O)O[C@H]1C)C[C@H](O)[C@H]2C(=O)O` [AmB, amphotericin B, reference compound], for which the “time from which completely fungicidal” value in assay [1] (2× MIC) came to 6 h. Moreover, the MIC-0 worked out at 15.6 mg/L (≈ 16.9 µM) in assay [2]; 3.9 mg/L (≈ 4.22 µM) in assay [3]; 3.9 mg/L (≈ 4.22 µM) in [4]; 3.9 mg/L (≈ 4.22 µM) in [5]; 0.98 mg/L (≈ 1.06 µM) in assay [6]; 3.9 mg/L (≈ 4.22 µM) in assay [7]. The MIC-0 in [9] worked out at 3.9 mg/L (≈ 4.22 µM); in assay [10], 3.9 mg/L (≈ 4.22 µM); in assay [11], 1.95 mg/L (≈ 2.11 µM); in assay [12] it was 1.95 mg/L (≈ 2.11 µM). For the same molecule, the “MIC values, range over the panel of fungal strains” value in [8] (Candida and Aspergillus strains, controls, tested herein or previously published) is 0.98 to 15.6 mg/L.

With `O=c1c2ccccc2sn1-c1ccccc1` [Compound 2a, ebsulfur], the MIC-0 is 12.5 mg/L (≈ 55 µM) in [13]; 6.25 mg/L (≈ 27.5 µM) in [14]; 6.25 mg/L (≈ 27.5 µM) in [15]; 6.25 mg/L (≈ 27.5 µM) in [2]; 6.25 mg/L (≈ 27.5 µM) in [3]; more than 12.5 mg/L in assay [5]. Moreover, the MIC-0 in assay [6] was 3.13 mg/L (≈ 13.8 µM); in [7], more than 12.5 mg/L; in [9], 3.13 mg/L (≈ 13.8 µM); in assay [10] it was 12.5 mg/L (≈ 55 µM); in assay [11], 6.25 mg/L (≈ 27.5 µM); in [12], 12.5 mg/L (≈ 55 µM). The “fungicidal or fungistatic effect” value in [1] (1× MIC) was “fungistatic”; in assay [1] (2× MIC), “fungicidal”. In addition, the “ROS induction (DCFH-DA fluorescence)” value in assay [16] was “highly fluorescent”.

Turning to `CC(C)Cn1c(=O)c2ccccc2[s+]1[O-]` (stereo not shown) [Compound 4e], the MIC-0 in assay [13], in [14], in [15], in assay [2], in [3] and in [4] was more than 12.5 mg/L each time. Moreover, the MIC-0 in assay [5], in [6], in [7], in assay [9], in assay [10] and in assay [11] was more than 12.5 mg/L each time. Moreover, the MIC-0 in assay [12] is more than 12.5 mg/L. Further, the “antifungal activity after oxidizing the sulfur atom to sulfoxide” value (shortened to “antifungal activity”) in assay [8] is “completely abolished”.

As to `CC(C)CCn1c(=O)c2ccccc2[s+]1[O-]` (stereo not shown) [Compound 4f], the MIC-0 in assay [13], in assay [14], in [15], in assay [2], in assay [3] and in assay [4] was more than 12.5 mg/L throughout. Further, the MIC-0 in assay [5], in assay [6], in [7], in assay [9], in assay [10] and in assay [11] was more than 12.5 mg/L in each case. The MIC-0 in [12] was more than 12.5 mg/L. Further, the “antifungal activity” value in assay [8] was “completely abolished”.

Turning to `O=c1c2ccccc2[s+]([O-])n1C1CCCCCCC1` (stereo not shown) [Compound 4n], the MIC-0 in assay [13], in [14], in assay [15], in assay [2], in assay [3] and in [4] was more than 12.5 mg/L in each case. In addition, the MIC-0 in assay [5], in assay [6], in assay [7], in [9], in assay [10] and in assay [11] was more than 12.5 mg/L each time. The molecule also gave an MIC-0 in assay [12] of more than 12.5 mg/L. In addition, in [8], the “antifungal activity” value was “completely abolished”.

As for `OO` [Compound H2O2, H2O2, reference compound], in assay [16], the “ROS induction (DCFH-DA fluorescence)” value is listed as “highly fluorescent”.

The values are drawn from US10544112B2, “Identification of ebsulfur analogues with broad-spectrum antifungal activity” (priority 2017, dated 2020).
